Seven molecules from ChEMBL document CHEMBL3286327, “Cyclohexadepsipeptides of the isaridin class from the marine-derived fungus Beauveria felina EN-135” (J Nat Prod, 2014) can be followed below.

Converted amounts (≈) assume the structure as drawn. Numbered stars: 1 amine (or outer) side, 2 acyl side, 3 side chain; on linkers, the order of the positions; unused ones are H or OH. Square brackets hold non-standard residues; d marks the D form. Peptide text beside a SMILES is read from it. X1 = C[C@H]1CCN([*:1])[C@@H]1C(=O)[*:2]; NMeF = CN[C@@H](Cc1ccccc1)C(=O)O; Hica(2S) = CC(C)C[C@H](O)C(=O)O; NMeL = CN[C@@H](CC(C)C)C(=O)O; NMeV = CN[C@H](C(=O)O)C(C)C; βAla = NCCC(=O)O

Data set [1] deals with Escherichia coli. Put plainly: Antibacterial activity against Escherichia coli after 24 hrs. The format is functional.
The subject of data set [2] is Artemia salina. Put plainly: Toxicity in Artemia salina at 100 ug/ml. It counts as organism-based. To be noted: in vivo.

On to `CC(C)C[C@@H]1NC(=O)[C@H](C(C)C)N(C)C(=O)[C@H](Cc2ccccc2)NC(=O)[C@@H]2CCCN2C(=O)[C@H](CC(C)C)OC(=O)CCNC1=O` (cyclo(F[NMeV]L[βAla][Hica(2S)]P)), for which the lowest concentration to inhibit growth in data set [1] (MIC) was 8 µg/mL (≈ 12.2 µM). Further, the Activity result in data set [2] is on record as “Non-toxic”.
Consider `CC(C)C[C@@H]1OC(=O)CCNC(=O)[C@H](Cc2ccccc2)N(C)C(=O)[C@H](C(C)C)N(C)C(=O)[C@H](Cc2ccccc2)NC(=O)[C@@H]2CCCN2C1=O` (cyclo(F[NMeV][NMeF][βAla][Hica(2S)]P)), for which the Activity entry in data set [2] was “Non-toxic”.
On to `CC(C)C[C@@H]1OC(=O)CCNC(=O)[C@H](Cc2ccccc2)N(C)C(=O)[C@H](C(C)C)N(C)C(=O)[C@H](Cc2ccccc2)NC(=O)[C@@H]2[C@@H](C)CCN2C1=O` (cyclo(F[NMeV][NMeF][βAla][Hica(2S)][X1])), for which the Activity entry in data set [2] is “Non-toxic”.
For `CC(C)C[C@@H]1OC(=O)CCNC(=O)[C@H](C(C)C)N(C)C(=O)[C@H](C(C)C)N(C)C(=O)[C@H](Cc2ccccc2)NC(=O)[C@@H]2CCCN2C1=O` (cyclo(F[NMeV][NMeV][βAla][Hica(2S)]P)), the MIC (as a rule, the lowest concentration found to suppress growth) in data set [1] was 16 µg/mL (≈ 24.4 µM). The Activity result in data set [2] is reported as “Non-toxic”.
Turning to `CC(C)C[C@@H]1NC(=O)[C@H](C(C)C)N(C)C(=O)[C@H](Cc2ccc(O)cc2)NC(=O)[C@@H]2CCCN2C(=O)[C@H](CC(C)C)OC(=O)CCNC1=O` (cyclo(L[βAla][Hica(2S)]PY[NMeV])), inhibition of growth in data set [1] (MIC) required 64 µg/mL (≈ 95.3 µM). The Activity result in data set [2] is “Non-toxic”.
The like results for `CC(C)C[C@@H]1OC(=O)CCNC(=O)[C@H](CC(C)C)N(C)C(=O)[C@H](C(C)C)N(C)C(=O)[C@H](Cc2ccc(O)cc2)NC(=O)[C@@H]2CCCN2C1=O` (cyclo([Hica(2S)]PY[NMeV][NMeL][βAla])) were, in that order, 64 µg/mL (≈ 93.3 µM) and “Non-toxic”.
On to `O=C(N[C@H](CO)[C@H](O)c1ccc([N+](=O)[O-])cc1)C(Cl)Cl` [CHLORAMPHENICOL], for which the MIC in data set [1] came out at 4 µg/mL (≈ 12.4 µM).
